According to ChEMBL document CHEMBL3885861, “Open TG-GATES”:

Organism: Rattus norvegicus
Assay: Open TG-GATES - Regimen: Single
Assay type: toxicity, organism-based, Sprague-Dawley
Set-up: regimen Single, gender Male, age 6 weeks
Conditions: in vivo, po, 1000 mg/kg, route gavage, dose level Middle; for APTT / Bas / Eos / Fbg / Hb / Ht / Lym / MCH / MCHC / MCV / Mono / Neu / PT / Plat / RBC / Ret / WBC: tissue Blood; for KIDNEY_L / KIDNEY_R / KIDNEY_TOTAL: tissue Kidney; for LIVER: tissue Liver; for A/G / ALP / ALT / AST / BUN / CRE / Ca / Cl / DBIL / GLC / IP / K / LDH / Na / PL / RALB / TBIL / TC / TG / TP / gamma-GTP: tissue Plasma

Which results are given for CCOc1ccc(NC(=O)CC(C)O)cc1 (configuration not stated) [BUCETIN]?
TERMINAL_BW (3 h): 211.2 g; APTT (3 h): 14.7 s; Bas (3 h): 0%; Eos (3 h): 1%; Fbg (3 h): 303 mg/dL; Hb (3 h): 13 g/dL; Ht (3 h): 38.6%; Lym (3 h): 78.4%; MCH (3 h): 20.6 pg; MCHC (3 h): 33.7%; MCV (3 h): 61.2 fL; Mono (3 h): 2%; Neu (3 h): 18.2%; PT (3 h): 13.5 s; Plat (3 h): 123 x10_4/uL; RBC (3 h): 630.8 x10_4/ul; Ret (3 h): 7.9%; WBC (3 h): 70.9 x10_2/uL; KIDNEY_L (3 h): 0.9 g; KIDNEY_R (3 h): 1 g; KIDNEY_TOTAL (3 h): 1.9 g; LIVER (3 h): 9.1 g; A/G (3 h): 0.9; ALP (3 h): 1363.2 IU/L; ALT (3 h): 33 IU/L; AST (3 h): 65.6 IU/L; BUN (3 h): 8.4 mg/dL; CRE (3 h): 0.1 mg/dL; Ca (3 h): 10.5 mg/dL; Cl (3 h): 104.6 meq/L; DBIL (3 h): 0.03 mg/dL; GLC (3 h): 182.2 mg/dL; IP (3 h): 9.1 mg/dL; K (3 h): 4.2 meq/L; LDH (3 h): 66.6 IU/L; Na (3 h): 141.4 meq/L; PL (3 h): 137.4 mg/dL; RALB (3 h): 2.5 g/dL; TBIL (3 h): 0.05 mg/dL; TC (3 h): 73.6 mg/dL; TG (3 h): 51.6 mg/dL; TP (3 h): 5.2 g/dL; gamma-GTP (3 h): 1.4 IU/L; TERMINAL_BW (6 h): 208.9 g; APTT (6 h): 19.8 s; Bas (6 h): 0%; Eos (6 h): 1%; Fbg (6 h): 317 mg/dL; Hb (6 h): 13.3 g/dL; Ht (6 h): 39.5%; Lym (6 h): 77%; MCH (6 h): 20.9 pg; MCHC (6 h): 33.6%; MCV (6 h): 62.1 fL; Mono (6 h): 2.6%; Neu (6 h): 19%; PT (6 h): 13.7 s; Plat (6 h): 118.7 x10_4/uL; RBC (6 h): 636.6 x10_4/ul; Ret (6 h): 7.8%; WBC (6 h): 61.8 x10_2/uL; KIDNEY_L (6 h): 0.9 g; KIDNEY_R (6 h): 0.9 g; KIDNEY_TOTAL (6 h): 1.8 g; LIVER (6 h): 8.3 g; A/G (6 h): 0.9; ALP (6 h): 1231.6 IU/L; ALT (6 h): 29 IU/L; AST (6 h): 64.4 IU/L; BUN (6 h): 8.6 mg/dL; CRE (6 h): 0.2 mg/dL; Ca (6 h): 10.7 mg/dL; Cl (6 h): 105.4 meq/L; DBIL (6 h): 0.036 mg/dL; GLC (6 h): 186.8 mg/dL; IP (6 h): 10.3 mg/dL; K (6 h): 4.2 meq/L; LDH (6 h): 57.8 IU/L; Na (6 h): 142 meq/L; PL (6 h): 139 mg/dL; RALB (6 h): 2.6 g/dL; TBIL (6 h): 0.062 mg/dL; TC (6 h): 82.2 mg/dL; TG (6 h): 28.4 mg/dL; TP (6 h): 5.5 g/dL; gamma-GTP (6 h): 1 IU/L; TERMINAL_BW (9 h): 204.6 g; APTT (9 h): 16.1 s; Bas (9 h): 0%; Eos (9 h): 0.6%; Fbg (9 h): 311.6 mg/dL; Hb (9 h): 13.6 g/dL; Ht (9 h): 40.3%; Lym (9 h): 78.8%; MCH (9 h): 21.1 pg; MCHC (9 h): 33.8%; MCV (9 h): 62.4 fL; Mono (9 h): 2.2%; Neu (9 h): 17.8%; PT (9 h): 14.2 s; Plat (9 h): 125.3 x10_4/uL; RBC (9 h): 646.4 x10_4/ul; Ret (9 h): 8.3%; WBC (9 h): 48.8 x10_2/uL; KIDNEY_L (9 h): 0.9 g; KIDNEY_R (9 h): 0.9 g; KIDNEY_TOTAL (9 h): 1.8 g; LIVER (9 h): 8.2 g; A/G (9 h): 0.9; ALP (9 h): 1308.4 IU/L; ALT (9 h): 29.6 IU/L; AST (9 h): 62.6 IU/L; BUN (9 h): 7.6 mg/dL; CRE (9 h): 0.1 mg/dL; Ca (9 h): 10.6 mg/dL; Cl (9 h): 106 meq/L; DBIL (9 h): 0.04 mg/dL; GLC (9 h): 196.6 mg/dL; IP (9 h): 9.8 mg/dL; K (9 h): 4 meq/L; LDH (9 h): 56.2 IU/L; Na (9 h): 142.4 meq/L; PL (9 h): 130.6 mg/dL; RALB (9 h): 2.6 g/dL; TBIL (9 h): 0.054 mg/dL; TC (9 h): 71.6 mg/dL; TG (9 h): 26.2 mg/dL; TP (9 h): 5.5 g/dL; gamma-GTP (9 h): 1 IU/L; TERMINAL_BW (24 h): 208.1 g; APTT (24 h): 23.5 s; Bas (24 h): 0%; Eos (24 h): 1%; Fbg (24 h): 268.6 mg/dL; Hb (24 h): 13.4 g/dL; Ht (24 h): 40.5%; Lym (24 h): 77.6%; MCH (24 h): 20.7 pg; MCHC (24 h): 33.2%; MCV (24 h): 62.3 fL; Mono (24 h): 3%; Neu (24 h): 18%; PT (24 h): 15.1 s; Plat (24 h): 125 x10_4/uL; RBC (24 h): 650.2 x10_4/ul; Ret (24 h): 7.5%; WBC (24 h): 77.3 x10_2/uL; KIDNEY_L (24 h): 1 g; KIDNEY_R (24 h): 1 g; KIDNEY_TOTAL (24 h): 1.9 g; LIVER (24 h): 8.9 g; A/G (24 h): 0.9; ALP (24 h): 1549 IU/L; ALT (24 h): 48 IU/L; AST (24 h): 92.2 IU/L; BUN (24 h): 16 mg/dL; CRE (24 h): 0.2 mg/dL; Ca (24 h): 10.8 mg/dL; Cl (24 h): 106.8 meq/L; DBIL (24 h): 0.03 mg/dL; GLC (24 h): 169.6 mg/dL; IP (24 h): 8.1 mg/dL; K (24 h): 4.2 meq/L; LDH (24 h): 93.8 IU/L; Na (24 h): 144.2 meq/L; PL (24 h): 154 mg/dL; RALB (24 h): 2.6 g/dL; TBIL (24 h): 0.07 mg/dL; TC (24 h): 86.4 mg/dL; TG (24 h): 66.2 mg/dL; TP (24 h): 5.6 g/dL; gamma-GTP (24 h): 1 IU/L
